Results from patent US10160747B2, “Compounds and methods for kinase modulation, and indications therefor” (Plexxikon Inc., priority 2016, dated 2018).

Tests used:
[1] = system: MOLM-14 F691L (endogenous FLT3 ITD and transfected FLT3 F691L); test: MOLM-14 F691L cell proliferation assay (CellTiter-Glo); format: cell-based; conditions: Homo sapiens, MOLM-14, 72 h; 3 d growth, GMean
From the text: (§1) The FLT3 inhibitors may be assessed using the MOLM-14, Acute Myeloid Leukemia cell line that endogenously expresses FLT3 ITD or derivatives of the human FLT3 AML cell line which acquired the D835Y (activation loop) of F691L (gatekeeper) mutation after selection in escalating doses of the FLT3 Inhibitor AC220. FLT3 inhibitors may also be assessed using cells that are engineered to express mutant FLT3. For engineered cells, murine Ba/F3 cells were transfected with full-length FLT3 ITD/D835Y mutations. The parental BA/F3 cells are dependent upon Interleukin-3 (IL-3) for survival, and introduction of the FLT3 constructs rendered these cells dependent upon FLT3 kinase activity when cultured in the absences of IL-3. Engineered BA/F3 cell growth assays can be performed in either the […] of IL-3, to assess the compound inhibition of FLT3 or to detect the presence of off-target activity, respectively. Inhibitors of FLT3 kinase activity reduce or eliminate the FLT3 oncogenic signaling, resulting in reduced cell proliferation. This inhibition is measured as a function of compound concentration to assess IC50 values.
(§2) Cell lines used in proliferation assays are as follows in Table 2:
(§3) Cells were seeded at 1×10^4 cells per well of a 96 well cell culture plate in 50 μl of cell culture medium. Compounds were dissolved in DMSO, typically at a concentration of 0.5 mM and were serially diluted 1:3 for a total of eight points and added to the cells to final concentrations of […], 0.0041, 0.0014 and 0.00046 μM in 100 μl cell culture medium (final concentration 0.2% DMSO). […] The cells were incubated at 37° C., 5% CO2 for three days. CellTiter-Glo Buffer (Promega Cell Viability Assay catalog #G7573) and substrate were equilibrated to room temperature, and enzyme/substrate Recombinant Firefly Luciferase/Beetle Luciferin was reconstituted. The cell plates were equilibrated to room temperature for 30 minutes, then lysed by addition of an equivalent volume of the Celltiter-Glo Reagent. The plate was mixed for 10 minutes on a plate shaker to lyse the cells. The plates were read on a Tecan M1000 using Luminescence protocol modified to read 0.1 s per well. The luminescence reading assesses the ATP content, which correlates directly with cell number such that the reading as a function of compound concentration was used to determine the IC50 value.

[2] = system: MOLM-14 D835Y (endogenous FLT3 ITD and transfected FLT3 D835Y); test: MOLM-14 D835Y cell proliferation assay (CellTiter-Glo); format: cell-based; conditions: Homo sapiens, MOLM-14, 72 h; 3 d growth, GMean
From the text: as §1, §2, §3

BA/F3-FLT3-ITD + D835Y = molecular target: T1, BA/F3-FLT3-ITD + D835Y (Homo sapiens, UniProt P36888, D835Y, cells depend on it, form not given); test: Engineered BA/F3 cell growth assay, FLT3 ITD/D835Y; format: cell-based, murine; conditions: 3 d growth
T1 sequence (P36888 with tags, fused parts or gaps INS600HVDFREYEYD/D835Y): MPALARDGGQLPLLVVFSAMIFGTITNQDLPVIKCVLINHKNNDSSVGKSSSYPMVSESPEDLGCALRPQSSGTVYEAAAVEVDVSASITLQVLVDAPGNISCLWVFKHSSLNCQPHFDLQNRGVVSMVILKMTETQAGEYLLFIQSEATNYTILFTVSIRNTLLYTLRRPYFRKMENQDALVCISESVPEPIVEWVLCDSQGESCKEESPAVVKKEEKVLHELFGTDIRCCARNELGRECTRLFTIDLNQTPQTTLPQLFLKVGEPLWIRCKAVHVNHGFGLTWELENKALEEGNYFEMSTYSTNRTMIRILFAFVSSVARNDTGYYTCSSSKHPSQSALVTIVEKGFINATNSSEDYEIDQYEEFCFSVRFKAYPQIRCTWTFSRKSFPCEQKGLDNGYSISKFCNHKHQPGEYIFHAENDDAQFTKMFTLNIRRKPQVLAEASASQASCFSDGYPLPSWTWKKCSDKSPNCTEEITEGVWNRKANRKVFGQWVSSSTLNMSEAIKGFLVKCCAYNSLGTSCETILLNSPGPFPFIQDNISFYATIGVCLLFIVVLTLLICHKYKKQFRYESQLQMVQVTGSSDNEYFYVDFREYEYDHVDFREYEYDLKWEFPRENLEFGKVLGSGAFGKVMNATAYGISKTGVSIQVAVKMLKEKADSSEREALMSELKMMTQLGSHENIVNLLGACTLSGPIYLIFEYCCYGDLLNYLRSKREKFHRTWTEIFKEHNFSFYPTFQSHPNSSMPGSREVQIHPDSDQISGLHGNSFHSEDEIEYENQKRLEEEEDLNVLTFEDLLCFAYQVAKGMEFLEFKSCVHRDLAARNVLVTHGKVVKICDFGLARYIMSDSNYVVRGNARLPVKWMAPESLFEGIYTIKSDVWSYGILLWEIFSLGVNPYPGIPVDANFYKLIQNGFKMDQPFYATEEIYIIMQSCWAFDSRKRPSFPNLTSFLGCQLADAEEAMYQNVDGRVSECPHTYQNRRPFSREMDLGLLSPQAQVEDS
From the text: as §1, §2, §3
The BaF3 assays as developed used to generate the data in Tables 7 and 8 are identical and differ only in minor details in regards to vector design, not biological function. Both introduce the FLT3 gene with MV4-11 based ITD duplications and resistance mutations from an exogenous promoter (MSCV and CMV respectively) in the exact same cell line.
As a result of the expressed FLT3 protein, the IL3 factor dependent BaF3 cell clones become IL3-factor independent.
The compounds in Tables 7 and 8 were tested in an identical fashion by incubating such clones in with increasing concentrations. Inhibition of the FLT3 activity by an inhibitor results in factor dependency, which in the absence of IL3 results in cell death in the three day growth assays.

COc1ncc(NC(=O)Cc2ccc(-c3cnc(Nc4cn(C(F)F)nc4C)nc3)cc2)cc1C(F)(F)F [Compound P-0054, 2-[4-[2-[[1-(difluoromethyl)-3-methyl-pyrazol-4-yl]amino]pyrimidin-5-yl]phenyl]-N-[6-methoxy-5-(trifluoromethyl)-3-pyridyl]acetamide]
0.0001 to 10 µM: IC50 [1] | IC50 [2] | GI50 (BA/F3-FLT3-ITD + D835Y)

COCC#Cc1cc2cc(-c3ccc(CC(=O)Nc4cnc(OC)c(C(F)(F)F)c4)cc3)cnc2[nH]1 [Compound P-0056, 2-[4-[2-(3-methoxyprop-1-ynyl)-1H-pyrrolo[2,3-b]pyridin-5-yl]phenyl]-N-[6-methoxy-5-(trifluoromethyl)-3-pyridyl]acetamide]
0.0001 to 10 µM: IC50 [1] | IC50 [2] | GI50 (BA/F3-FLT3-ITD + D835Y)

Cn1cc(Nc2ncc(-c3ccc(CC(=O)Nc4cc(C(C)(F)F)ccn4)c(F)c3)cn2)cn1 [Compound P-0093, N-[4-(1,1-difluoroethyl)-2-pyridyl]-2-[2-fluoro-4-[2-[(1-methylpyrazol-4-yl)amino]pyrimidin-5-yl]phenyl]acetamide]
0.0001 to 10 µM: IC50 [1] | IC50 [2] | GI50 (BA/F3-FLT3-ITD + D835Y)

Cn1cc(Nc2ncc(-c3ccc(CC(=O)Nc4ccnc(C(C)(C)C)c4)cc3)cn2)cn1 [Compound P-0112, N-(2-tert-butyl-4-pyridyl)-2-[4-[2-[(1-methylpyrazol-4-yl)amino]pyrimidin-5-yl]phenyl]acetamide]
0.0001 to 10 µM: IC50 [1] | IC50 [2] | GI50 (BA/F3-FLT3-ITD + D835Y)

Cn1cc(Nc2ncc(-c3ccc(CC(=O)Nc4ccc(C#N)c(C(F)(F)F)c4)cc3)cn2)cn1 [Compound P-0113, N-[4-cyano-3-(trifluoromethyl)phenyl]-2-[4-[2-[(1-methylpyrazol-4-yl)amino]pyrimidin-5-yl]phenyl]acetamide]
0.0001 to 10 µM: IC50 [1] | IC50 [2] | GI50 (BA/F3-FLT3-ITD + D835Y)

Cn1cc(Nc2ncc(-c3ccc(CC(=O)Nc4cnc(Cl)c(Cl)c4)cc3)cn2)cn1 [Compound P-0116, N-(5,6-dichloro-3-pyridyl)-2-[4-[2-[(1-methylpyrazol-4-yl)amino]pyrimidin-5-yl]phenyl]acetamide]
0.0001 to 10 µM: IC50 [1] | IC50 [2] | GI50 (BA/F3-FLT3-ITD + D835Y)

Cn1cc(Nc2ncc(-c3ccc(CC(=O)Nc4cnc(Cl)c(Br)c4)cc3)cn2)cn1 [Compound P-0117, N-(5-bromo-6-chloro-3-pyridyl)-2-[4-[2-[(1-methylpyrazol-4-yl)amino]pyrimidin-5-yl]phenyl]acetamide]
0.0001 to 10 µM: IC50 [1] | IC50 [2] | GI50 (BA/F3-FLT3-ITD + D835Y)

COc1ncc(NC(=O)Cc2ccc(-c3cnc(Nc4cnn(C)c4)nc3)cc2)cc1Br [Compound P-0118, N-(5-bromo-6-methoxy-3-pyridyl)-2-[4-[2-[(1-methylpyrazol-4-yl)amino]pyrimidin-5-yl]phenyl]acetamide]
0.0001 to 10 µM: IC50 [1] | IC50 [2] | GI50 (BA/F3-FLT3-ITD + D835Y)

Cn1cc(Nc2ncc(-c3ccc(CC(=O)Nc4cnc5[nH]ccc5c4)cc3)cn2)cn1 [Compound P-0119, 2-[4-[2-[(1-methylpyrazol-4-yl)amino]pyrimidin-5-yl]phenyl]-N-(1H-pyrrolo[2,3-b]pyridin-5-yl)acetamide]
0.0001 to 10 µM: IC50 [1] | IC50 [2] | GI50 (BA/F3-FLT3-ITD + D835Y)

Cc1n[nH]c2ncc(NC(=O)Cc3ccc(-c4cnc(Nc5cnn(C)c5)nc4)cc3)cc12 [Compound P-0120, N-(3-methyl-1H-pyrazolo[3,4-b]pyridin-5-yl)-2-[4-[2-[(1-methylpyrazol-4-yl)amino]pyrimidin-5-yl]phenyl]acetamide]
0.0001 to 10 µM: IC50 [1] | IC50 [2] | GI50 (BA/F3-FLT3-ITD + D835Y)

Cn1cc(Nc2ncc(-c3ccc(CC(=O)NCc4c(Cl)cccc4Cl)cc3)cn2)cn1 [Compound P-0123, N-[(2,6-dichlorophenyl)methyl]-2-[4-[2-[(1-methylpyrazol-4-yl)amino]pyrimidin-5-yl]phenyl]acetamide]
0.0001 to 10 µM: IC50 [1] | IC50 [2] | GI50 (BA/F3-FLT3-ITD + D835Y)

Cn1cc(Nc2ncc(-c3ccc(CC(=O)NCc4cc(F)ccc4Cl)cc3)cn2)cn1 [Compound P-0124, N-[(2-chloro-5-fluoro-phenyl)methyl]-2-[4-[2-[(1-methylpyrazol-4-yl)amino]pyrimidin-5-yl]phenyl]acetamide]
0.0001 to 10 µM: IC50 [1] | IC50 [2] | GI50 (BA/F3-FLT3-ITD + D835Y)

Cn1cc(Nc2ncc(-c3ccc(CC(=O)NCc4ccc(F)cc4Cl)cc3)cn2)cn1 [Compound P-0125, N-[(2-chloro-4-fluoro-phenyl)methyl]-2-[4-[2-[(1-methylpyrazol-4-yl)amino]pyrimidin-5-yl]phenyl]acetamide]
0.0001 to 10 µM: IC50 [1] | IC50 [2] | GI50 (BA/F3-FLT3-ITD + D835Y)

Cn1cc(Nc2ncc(-c3ccc(CC(=O)NCc4c(F)cccc4Cl)cc3)cn2)cn1 [Compound P-0127, N-[(2-chloro-6-fluoro-phenyl)methyl]-2-[4-[2-[(1-methylpyrazol-4-yl)amino]pyrimidin-5-yl]phenyl]acetamide]
0.0001 to 10 µM: IC50 [1] | IC50 [2] | GI50 (BA/F3-FLT3-ITD + D835Y)

Cn1cc(Nc2ncc(-c3ccc(CC(=O)NCc4cccc(C(F)(F)F)c4)cc3)cn2)cn1 [Compound P-0128, 2-[4-[2-[(1-methylpyrazol-4-yl)amino]pyrimidin-5-yl]phenyl]-N-[[3-(trifluoromethyl)phenyl]methyl]acetamide]
0.0001 to 10 µM: IC50 [1] | IC50 [2] | GI50 (BA/F3-FLT3-ITD + D835Y)

Cn1cc(Nc2ncc(-c3ccc(CC(=O)NCc4ccc(C(F)(F)F)cc4)cc3)cn2)cn1 [Compound P-0129, 2-[4-[2-[(1-methylpyrazol-4-yl)amino]pyrimidin-5-yl]phenyl]-N-[[4-(trifluoromethyl)phenyl]methyl]acetamide]
0.0001 to 10 µM: IC50 [1] | IC50 [2] | GI50 (BA/F3-FLT3-ITD + D835Y)
